Source: patent US10583210B2, “Auger electron therapy for glioblastoma” (Syddansk Universitet, priority 2014, dated 2020)
“Also recorded” adds a separate entry of the source.

How the values were obtained:
[1] = tested on: T87 glioblastoma cells; test: CellTiter Blue viability assay, T87 cells; assay type: cell-based, human
Experimental: (§1) Cells were cultured as free-floating spheroids in the absence of serum at 36° C. in a humidified incubator with 5% CO2. Two GSCs passage 9-12, designated […], were utilized. They were established, as previously described in our laboratory in 2009 ([…]) and 2010 ([…]), in accordance with the Regional Scientific Ethical Committee (approval number S-VF-20040102). They have; the ability to form new spheroids at clonal density, a karyotype typical of GBMs, the ability to differentiate into cells expressing neuronal, astrocytic and oligodendrocyte markers upon culturering in serum-containing medium and the ability to form highly invasive tumors upon orthotopic xenografting (exemplified for the […] GCS in Supplementary FIG. 1). […] The cells were then incubated in serum-free medium or serum-free medium containing either the non-radioactive, but chemically identical ^[…]-UdR (0.3 μg/ml, Sigma-Aldrich), or increasing activities of ^125I-UdR (0-3 kBq/ml). At day 7, 20 μl of CellTiter Blue (Promega) was added and the cells were returned to the incubator for 6 hours prior to recording of the fluorescence in a Victor3 Multilabel Plate Reader (PerkinElmer Life Sciences).

[2] = tested on: T87 GBM cells; test: 125I-UdR incorporation after MTX/F-UdR exposure, T87 (gammacounter); assay type: cell-based, human; details: for 125I-UdR incorporation compared to non-treated control cells: 1 hour pre-treatment with 1 μM, 16 h later 100 Bq/mL 125I-UdR for 72 h
Experimental: A) 1 hour pre-treatment of T87 GBM cells in vitro with 1 μM MTX or F-UdR before ^125I-UdR exposure increased the ^125I incorporation in the cells. […] The incorporation rate was determined by a gammacounter. […] F-UdR was effective in concentrations ≥1 nM while MTX was effective at ≥10 nM. At a F-UdR concentration of 10 μM, the 125I-incorporation declined presumably do to toxic effects from the F-UdR. […] Opposed to the T87 cell line, the T86 cell line is also known to have an unmethylated MGMT promoter region, thereby being less responsive to TMZ chemotherapy.

[3] = tested on: TE-671 human rhabdomyosarcoma cells; details: IT bolus of 125I-UdR, IT infusion of MTX; cited from earlier work
[4] = tested on: orthotopic xenografted GBM (evolved from the T87 GSC); test: Therapeutic study in orthotopic xenografted GBM-bearing nude rats (PET, survival, histology)
Experimental: All animal procedures were conducted in accordance with the obtained approval from the national Animal Experiments Inspectorate (permission J. Nr. 2008/561-1572). Male athymic nude rats (n=24) aged six weeks (Hsd:RH-Foxnl mu, Harlan laboratories) were anaesthetized subcutaneously (mixture of Hypnorm and Midazolam) and placed in a small animal stereotaxic instrument (Model 900, David Kopf Instruments). Through a midline scalp incision, the bregma was exposed, and one mm anteriorly and two mm laterally to this a burr hole was made. A blunt cannula (Hamilton 7102 syringe) was then advanced to a depth of 3.5 mm (right striatum), and a 2 μl cell suspension of 300,000 T87 single cells in Hank's Balanced Salt Solution (Gibco) supplemented with 0.9% glucose (SAD 500 mg/ml) was slowly injected. After removal of the cannula, the skin was closed with VICRYL 5.0 (Ethicon) disrupted sutures. Two weeks after tumor-cell inoculation, a SMP-200 iPRECIO® Micro Infusion Pump (Data Sciences International) was implanted subcutaneously, since preliminary experiments had shown establishment of tumors at this time point. Infusion protocols (instant mode, constant flow mode and 5 μl/hour infusion rate) were downloaded, and the pumps were conditioned according to Low Flow Infusion Standard Operational Procedure. Rats were anaesthetized and fixated as described above. The midline incision was re-incised and the burr hole was identified. A 4 mm pump connector cannula (PlasticsOne model 328OPM/PK/Spc) was then connected to the pump catheter and implanted (according to the manufactures Technical Note 6) with the tip of the cannula in the center of the bulk tumor. Pumps were loaded with isotone saline (n=8, group I) or 0.1 mM MTX (Sigma-Aldrich) (n=16, group II and III). Finally, the skin was closed with VICRYL 5.0 disrupted sutures. As one of the rats with an MTX loaded pump never woke up after surgery it was censored from the study. Two days later the 23 rats were anaesthetized using isoflurane, and residual saline or MTX was extracted from the pump reservoirs according to the manufacturer's instructions. The reservoirs were refilled with 960 μl of 0.3 μg/m ^127I-UdR (n=8, group I) or twice with the ^125I-UdR activity (n=15, group II and III), enabling 8 days of continuous infusion and a cumulated infused ^125I-UdR activity of 83±7 MBq.
Rats were fed ad libitum and to block the thyroid gland, KI (Sigma-Aldrich) was added to the drinking water (1 mg/ml) from the day of pump implantation and the following 14 days. At the end of the observation period (180 days after completion of treatment) or once animals reached the pre-determined humane endpoints (neurological deficits or >20% weight-loss) they were anaesthetized by isoflurane and euthanized by intravenous pentobarbital injection.
For tumor response evaluation, the animals were PET scanned biweekly in the initial phase and later every third week using the Inveon PET scanner. […] After the tracer injection pairs of animals were placed head-to-head in the scanner and at 40 min. post injection a 14 min. static scan was performed. The acquired data were reconstructed using the ordered subset expectation maximization in two dimensions algorithm without scatter and attenuation correction in the Inveon Acquisition Workplace software module (Siemens).
Brain, thyroid gland, liver and kidneys were removed post-mortem and fixed in 4% formaldehyde. After fixation, brains were divided in one mm thick coronal sections using a rat brain matrix (PlaticsOne) followed by paraffin embedment. […] Three μm sections were cut and all sections were stained with HE for morphological evaluation.

[5] = tested on: T78 glioblastoma (GBM) cells; test: CellTiter Blue viability assay, T78 cells; assay type: cell-based, human
Experimental: as §1

[6] = tested on: T87 spheroids; test: 2D spheroid migration assay, T87; assay type: cell-based, human; details: for spheroid migration: 3 kBq/ml 125I-UdR or 0.3 μg/ml 127I-UdR, day 0-5, effect from day three
Experimental: (§2) Geltrex (Gibco) and serum-free medium was mixed (1+49) and 1.4 ml was added to each well in 12-well plates. Coated plates were incubated over night at 36° C. and the following morning the supernatant was aspirated. Then, one spheroid (100-200 μm) was aspirated into a 0.1-2.0 μl pipette and meticulously embedded in the coating. After incubating the plate for 75 minutes at 36° C., 800 μl serum-free medium was added. When spheroids started migrating (designated day 0) additionally 200 μl of serum-free medium (serving as untreated controls), ^127I-UdR or ^125I-UdR was added resulting in a final concentration of 0.3 μg/ml or 3 kBq/ml of ^127I-UdR or ^125I-UdR, respectively. Images were obtained daily from day 0 to day 5 using a Leica DM IRB inverted phase-contrast microscope, a Leica DFC300FX camera, and the Leica Application Suite version 2.6.0 RI computer software. The radius of the spheroids was determined (http://imagej.nih.gov/ij/) and the migration speed/day was calculated.

[7] = tested on: T78 spheroids; test: 2D spheroid migration assay, T78; assay type: cell-based, human; details: 3 kBq/ml 125I-UdR, from day three, vs 127I-UdR treated spheroids
Experimental: as §2

[8] = Intracerebral distribution by SPECT/CT; assay type: in vivo, athymic nude rats; details: constant intratumoral CED for 8 days, last day of infusion
Experimental: The intracranial distribution of infused ^125I-UdR was measured at the last day of infusion using a Siemens Inveon Small Animal PET/SPECT/CT scanner. The animals were anesthetized using isoflurane and subsequently SPECT scanned for approximately 42 min using 1.8 mm pinhole collimators (3×1.8 RWB collimators) with 30 projections in 180 degrees rotation. […] In one of the animals a low-dose CT scan was performed in combination with the SPECT scan to visualize the surrounding cranium.

[9] = tested on: C6 glioma; details: local implant, 7.4 MBq 125I-UdR, passive diffusion; cited from earlier work
[10] = Adverse effect evaluation (blood samples, post-mortem histology); assay type: in vivo, athymic nude rats
[11] = co-incubation with 18.5 KBq/mL 125I-UdR for 4 hours

SMILES: O=c1[nH]c(=O)n([C@H]2C[C@H](O)[C@@H](CO)O2)cc1F [F-UdR, 5-Fluoro-2′-deoxyuridine]
- killing effect compared with MTX ([1]; T87, 7 days exposure): stronger killing effect
- 125I-UdR incorporation compared to non-treated control cells [2]: significantly increase
- concentration effective in increasing 125I incorporation [2, 11]: ≥ 1 nM
- 125I-incorporation at 10 μM ([2]; co-incubation with 18.5 KBq/mL 125I-UdR for 4 hours, presumably toxic effects): declined

SMILES: CN(Cc1cnc2nc(N)nc(N)c2n1)c1ccc(C(=O)N[C@@H](CCC(=O)O)C(=O)O)cc1 [MTX, methotrexate]
- 125I-UdR incorporation compared to non-treated control cells [2]: significantly increase
- concentration effective in increasing 125I incorporation [2, 11]: ≥ 10 nM
- median time to onset of paralysis [3]: no significant effect

SMILES: Cn1nnc2c(C(N)=O)ncn2c1=O [TMZ, temozolomide]
- maximum survival extrapolated for TMZ monotherapy ([4]; extrapolating the U87MG data to the present findings): 66 days
- median survival ([4]; orthotopic GBM rat model, KM-survival plot FIG. 14): 47 days

SMILES: O=c1[nH]c(=O)n([C@H]2C[C@H](O)[C@@H](CO)O2)cc1[125I] [^125I-UdR, 5-[^125I]iodo-2′-deoxyuridine]
- IC50 (cell viability) ([1]; T87, 7 days exposure, non-linear regression, range printed 99-120 Bq/mL): 109 Bq/mL
- cell survival compared to untreated controls ([1]; T87, day 7, most activity concentrations (0-3 kBq/ml), p<0.0001): significantly decreased
- activity concentrations with highly significant effect compared to 127I-UdR ([1]; T87, p<0.0001): ≥ 100 Bq/ml
- cell survival compared to untreated controls ([5]; T78, day 7, most activity concentrations (0-3 kBq/ml), p<0.0001): significantly decreased
- activity concentrations with highly significant effect compared to 127I-UdR ([5]; T78, p<0.0001): ≥ 100 Bq/ml
- spheroid migration [6]: significantly reduced; also recorded: clearly inhibited
- spheroid expansion in size ([6]; vs untreated or 127I-UdR exposed spheroids): not able to expand in size
- spheroid migration [7]: significantly reduced
- 125I in the tumor region by SPECT/CT [8]: high concentration
- animals surviving the entire observation period of 180 days [9]: 20%
- median survival [9]: 35 days

SMILES: O=c1[nH]c(=O)n([C@H]2C[C@H](O)[C@@H](CO)O2)cc1I [^127I-UdR, 5-iodo-2′-deoxyuridine]
- spheroid migration [6]: unaffected
- animals with dark neurons in the hippocampus (CA3 region) ([10]; HE stained brain sections): 4/8
- animals with dark neurons in the neocortex ([10]; HE stained brain sections): 7/8
- thyroid gland histology ([10]; HE stained sections): normofollicular architecture
- liver histology (hepatocyte necrosis, haemorrhage, inflammation) ([10]; PAS-diastase staining): no signs of hepatocyte necrosis, haemorrhage or inflammation
- animals surviving the entire observation period of 180 days [9]: No ^127I-UdR treated animal survived the entire observation period
- median survival [9]: 20 days
- animals developing a PET-detectable tumor / tumor progression by [11C]MeAIB PET ([4]; 180 days observation period): rapidly progressed
- animals surviving the entire observation period ([4]; 180 days, surviving/total animals): 0/8
- time from therapy initiation to the first PET-based tumor detection ([4]; [11C]MeAIB PET): 21 days
- post-mortem histology of the brains ([4]; anti-human vimentin staining): very large tumors
- longest survival after initiation of treatment ([4]; death due to massive tumor burden): ≤ 23 days
